Values of other authors in US20060127910A1, “Bpl1 as an antifungal target” (priority 2002, published 2006).

Settings: mice, DOX 2 mg/ml in 5% sucrose solution as drinking water, approx. 5 ml per day

concentration of DOX in kidney (kidney): > 10 mg/g of kidney
concentration of DOX in liver (liver): > 8 mg/g of liver
concentration of DOX in serum (serum): more than 2 mg/ml of serum
SMILES: C[C@H]1c2cccc(O)c2C(O)=C2C(=O)[C@]3(O)C(O)=C(C(N)=O)C(=O)[C@@H](N(C)C)[C@@H]3[C@@H](O)[C@@H]21 [DOX, doxycycline]
